Test results published in patent publication US20200239937A1, “BIOMARKERS FOR DIAGNOSING CONDITIONS” (The Council of the Queensland Institute of Medical Research, priority 2017, published 2020).
Residues, ends and D or L forms follow the SMILES beside them. *: point of attachment. Cbz = O=C(OCc1ccccc1)*

What was measured:
[1] = system: G9a; assay: Ubiquitination assay (His-ubiquitin pull-down, G9a immunoblot); format: cell-based; conditions: MCF7 cells, DMOG 1 mM
Procedure: The ubiquitination assay was performed as described previously (Lee, Mol. Cell, 2012). Briefly, cells were transfected with expression constructs including His-tagged ubiquitin and treated with 5 μg/ml of MG132 for 4 hrs, lysed in buffer A (6 M guanidinium-HCl, 100 mM sodium phosphate, 10 mM Tris-HCl (pH 8.0), 5 mM imidazole, and 10 mM β-mercaptoethanol), and incubated with Ni^2+-NTA beads (QIAGEN) for 4 hrs at room temperature. The beads were then washed sequentially with buffer A, buffer B (8 M urea, 100 mM sodium phosphate buffer, 10 mM Tris-HCl (pH 8.0), and 10 mM β-mercaptoethanol), and buffer C (8 M urea, 100 mM sodium phosphate buffer, 10 mM Tris-HCl (pH 6.3), and 10 mM β-mercaptoethanol). Bound proteins were eluted with buffer D (200 mM imidazole, 150 mM Tris-HCl (pH 6.7), 30% glycerol, 0.72 M β-mercaptoethanol, and 5% SDS), and subject to immunoblot analysis.

[2] = system: G9a; assay: G9a immunoblotting of nuclear extracts; format: cell-based
[3] = system: G9a and pVHL; assay: Co-immunoprecipitation of G9a and pVHL; format: cell-based; conditions: MCF7 cells, immunoprecipitated with anti-HA
[4] = system: MCF7 and MDA231 cells; assay: Proliferation by IncuCyte Zoom real-time imaging; format: cell-based; conditions: 48 hours
Procedure: (§1) For proliferation studies, cells (5×10^3) were seeded in 96-place wells and allowed to attach overnight, and then incubated in fresh growth medium in the presence of either the G9a inhibitor UNC0642 (Sigma Aldrich) or the vehicle control DMSO (Sigma Aldrich). Proliferation was evaluated via real-time imaging using IncuCyte Zoom (Essen BioScience) or by performing SRB assays at the end of the treatment. For SRB assays, medium was aspirated and cells were fixed in methylated spirits before being washed with water and stained with SRB (Sigma Aldrich) solution (0.4% in 1% acetic acid). The intensity of the staining was obtained using an optical plate reader at 564 nm. Cell viability was determined using a 3-(4,5-dimethylthiazol-2-yl)-2,5-diphenyltetrazolium bromide ([…]) assay. Cells (3×10^3/well) were seeded directly into 96-well plates and allowed to adhere overnight. 96 hours after drug treatment, 20 μL of MU (5 mg/mL; Sigma-Aldrich) was added. The plates were incubated at 37° C. for 3 hrs before the supernatants were removed, and 100 μL of isopropanol was added to each well. The absorbance value (optical density) of each well was measured at 570 nm.

[5] = system: MDA231; assay: SRB assay, MDA231; format: cell-based; conditions: MDA231, 48 hour treatment, normoxic and hypoxic conditions
Procedure: as §1

[6] = system: H3K9me2 at promoters of G9a-repressed genes; assay: ChIP of H3K9me2 on promoters of G9a-repressed genes; format: cell-based; conditions: MCF7 cells, 3 μM UNC0642, hypoxia
Procedure: (§2) Quantitative RT-PCR and ChIP assays were conducted as previously described.

[7] = system: AT3 syngeneic mammary tumor; assay: AT3 syngeneic mammary tumor growth in vivo; set-up: species or system C57BL/6 mice; conditions: 5 mg/kg intraperitoneally every two days
Procedure: C57BL/6 mice were purchased from the ARC Animal Resources Center. Groups of 8 to 10 mice per experiment were used for experimental tumor assays to ensure adequate power to detect biologic differences. All experiments were approved by the QIMR Berghofer Medical Research Institute Animal Ethics Committee. A total of 1×10^6 AT3 tumor cells were subcutaneously injected into mice in a 100 μL volume (on day 0) and UNC0642 administered every two days between days 16 and day 36. Tumor growth was measured using a digital calliper, and tumor volumes are presented as mean±SEM.

[8] = system: MCF7; assay: SRB assay, MCF7; format: cell-based; conditions: MCF7, 48 hour treatment, normoxic and hypoxic conditions
Procedure: as §1

[9] = system: Bre80 and MCF10A breast epithelial cells; assay: Cell survival (MTT) in normal-like breast epithelial cells; format: cell-based; conditions: UNC0642 at 5 μM
Procedure: as §1

[10] = system: breast cancer cell motility (MCF7, MDA231); assay: Scratch wound assay; format: cell-based
[11] = system: breast cancer cell lines; assay: Cell survival (MTT) in breast cancer cell lines; format: cell-based; conditions: UNC0642 at 5 μM
Procedure: as §1

[12] = system: H3K9me2; assay: Immunoblotting of global H3K9me2; format: cell-based; conditions: MCF7 nuclear extracts, 6 hrs
[13] = system: 10 G9a-suppressed genes; assay: Real-time qPCR of the 10 G9a-suppressed genes; format: cell-based; conditions: versus control cells
Procedure: as §2
Briefly, total RNA was isolated using Trizol (Invitrogen) and reverse transcription was performed from 2.5 μg of total RNA using the Superscript III cDNA synthesis kit (Invitrogen). The abundance of mRNA was detected by an ABI VIIA7 system with SYBR Green Master Mix (Life Technologies). Primer pairs were designed to amplify 90-150 bp mRNA specific fragments and were confirmed as unique products by melting curve analysis. The quantity of mRNA was calculated using ΔΔCt method and normalized by using primers to detect HPRT. All reactions were performed in triplicates.

COC(=O)CNC(=O)C(=O)OC [DMOG, dimethyloxaloylglycine]
level of G9a polyubiquitination [1]: markedly reduced | G9a protein levels ([2]; MCF7 and MDA231 cells, DMOG 1 mM, DFA 100 μM): increase in G9a protein levels | interaction between G9a and pVHL [3]: significantly inhibited

COc1cc2c(NC3CCN(C(C)C)CC3)nc(N3CCC(F)(F)CC3)nc2cc1OCCCN1CCCC1 [UNC0642]
confluency at the end of the experiment, fold less compared to vehicle control ([4]; 2-3 μM): 2 to 2.5 fold | proliferation compared to vehicle control ([4]; various concentrations): dose-dependent reduction in proliferation | cells present after treatment [5]: less than 20% | hypoxia-mediated increase in H3K9me2 in promoters of G9a-repressed genes [6]: almost completely abrogated or significantly reduced | mean tumor volume at end-point versus vehicle treated group [7]: significantly lower | tumor growth ([7]; days 16 to 36): significantly reduced tumor growth | cells present after treatment [8]: less than 20% | cell survival [9]: unaffected | wound closure ([10]; hypoxic condition, 72 hours): not able to close the wound even after 72 hours | cellular migration (denuded area versus vehicle control) ([10]; normoxic condition): inhibit cellular migration | survival of cancer cell lines [11]: significantly attenuated | global H3K9me2 [12]: significant reduction | hypoxia repression of expression of the 10 G9a-suppressed genes [13]: repression was abolished

CC(C)C[C@@H](C=O)NC(=O)[C@H](CC(C)C)NC(=O)[C@H](CC(C)C)NC(=O)OCc1ccccc1 [MG132] (Cbz-Leu-Leu-Leu-aldehyde)
G9a protein level ([2]; MCF7 cells, normoxia, 9 hrs, 20 μM MG132): increase in G9a protein level
